Data published in the supplement of paper PMC10307832.

Tests used:
Assay in all cases: relative viability (nuclei count vs DMSO), 5 days (fraction); higher = more cells survive
Pazopanib + Bortezomib = compound: Cc1ccc(Nc2nccc(N(C)c3ccc4c(C)n(C)nc4c3)n2)cc1S(N)(=O)=O [Pazopanib] + CC(C)C[C@H](NC(=O)[C@H](Cc1ccccc1)NC(=O)c1cnccn1)B(O)O [Bortezomib] (partner 0.002 µM)
Outline: (§1)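 Lung cancer cell lines, seeded in 1536-well plates, were treated the following day by pin tool with a single drug or with five library-drug doses (not always all listed) in √10 steps on top of a fixed anchor-drug dose. Cells were fixed and nuclei stained in one step after 5 days, and nuclei were counted. Relative viability is the nuclei count for treated wells divided by that for vehicle wells, reported as medians of duplicate plates.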

Pazopanib + AZD7762 = compound: Cc1ccc(Nc2nccc(N(C)c3ccc4c(C)n(C)nc4c3)n2)cc1S(N)(=O)=O [Pazopanib] + NC(=O)Nc1cc(-c2cccc(F)c2)sc1C(=O)N[C@H]1CCCNC1 [AZD7762] (partner 0.2 µM)
Outline: as §1

Ponatinib + Bortezomib = compound: Cc1ccc(C(=O)Nc2ccc(CN3CCN(C)CC3)c(C(F)(F)F)c2)cc1C#Cc1cnc2cccnn12 [Ponatinib] + CC(C)C[C@H](NC(=O)[C@H](Cc1ccccc1)NC(=O)c1cnccn1)B(O)O [Bortezomib] (partner 0.002 µM)
Outline: as §1

Ponatinib + Crizotinib = compound: Cc1ccc(C(=O)Nc2ccc(CN3CCN(C)CC3)c(C(F)(F)F)c2)cc1C#Cc1cnc2cccnn12 [Ponatinib] + C[C@@H](Oc1cc(-c2cnn(C3CCNCC3)c2)cnc1N)c1c(Cl)ccc(F)c1Cl [Crizotinib] (partner 1 µM)
Outline: as §1

Row | Cell Line | relative viability (Pazopanib + Bortezomib; first compound 0.01 µM) | relative viability (Pazopanib + Bortezomib; first compound 0.03162 µM) | relative viability (Pazopanib + Bortezomib; first compound 0.1 µM) | relative viability (Pazopanib + Bortezomib; first compound 0.3162 µM) | relative viability (Pazopanib + Bortezomib; first compound 1 µM) | relative viability (Pazopanib + AZD7762; first compound 0.03162 µM) | relative viability (Pazopanib + AZD7762; first compound 0.1 µM) | relative viability (Pazopanib + AZD7762; first compound 0.3162 µM) | relative viability (Pazopanib + AZD7762; first compound 1 µM) | relative viability (Ponatinib + Bortezomib; first compound 0.002 µM) | relative viability (Ponatinib + Bortezomib; first compound 0.006325 µM) | relative viability (Ponatinib + Bortezomib; first compound 0.06325 µM) | relative viability (Ponatinib + Bortezomib; first compound 0.2 µM) | relative viability (Ponatinib + Crizotinib; first compound 0.002 µM) | relative viability (Ponatinib + Crizotinib; first compound 0.006325 µM) | relative viability (Ponatinib + Crizotinib; first compound 0.06325 µM) | relative viability (Ponatinib + Crizotinib; first compound 0.2 µM) | relative viability (Pazopanib + AZD7762; first compound 0.01 µM)
1 | EMC-BAC-2 | 0.889 | 1.11 | 1.1 | 1.04 | 1.22 | 1.14 | 1.09 | 1.14 | 1.2 | 0.967 | 1.02 | 1.06 | 1.04 | 0.708 | 0.661 | 0.747 | 0.727 | –
2 | LK-2 | – | – | – | – | – | 0.411 | 0.398 | 0.451 | 0.354 | – | – | – | – | 0.26 | 0.217 | 0.234 | 0.269 | 0.283
3 | NCI-H2126 | 1.05 | 1.14 | 1.11 | 1.07 | 1.09 | 0.947 | 1.07 | 0.959 | 1.04 | 1.08 | 1.13 | 1.16 | 1.13 | 0.97 | 1.02 | 1.1 | 1.03 | 0.963
4 | NCI-H322M | 1.09 | 1.34 | 1.35 | 1.32 | 1.21 | 0.539 | 0.617 | 0.617 | 0.669 | 1.19 | 1.27 | 1.44 | 1.21 | 0.913 | 0.961 | 0.816 | 0.66 | 0.559
5 | NCI-H2170 | – | – | – | – | – | 0.967 | 0.94 | 0.896 | 0.815 | – | – | – | – | 1.13 | 1.15 | 1.22 | 1.17 | 0.744
6 | NCI-H2009 | 0.892 | 1.11 | 0.876 | 0.955 | 0.906 | – | – | – | – | 0.86 | 0.969 | 1.05 | 1 | 1.04 | 0.975 | 1.11 | 1.02 | –
7 | COR-L23 | 1.23 | 1.08 | 1.12 | 0.935 | 1.02 | – | – | – | – | 0.862 | 0.875 | 0.818 | 0.8 | 0.525 | 0.588 | 0.619 | 0.568 | –
8 | NCI-H1299 | 0.998 | 0.987 | 1.05 | 1.03 | 1.02 | – | – | – | – | 1.05 | 1 | 1.06 | 0.993 | 0.904 | 0.936 | 0.974 | 0.923 | –
9 | NCI-H661 | 0.823 | 0.853 | 0.786 | 0.631 | 0.873 | – | – | – | – | 0.714 | 0.88 | 0.962 | 0.63 | 1.02 | 1.04 | 0.99 | 1.13 | –
10 | NCI-H1650 | 0.204 | 0.212 | 0.235 | 0.191 | 0.21 | – | – | – | – | 0.216 | 0.193 | 0.227 | 0.222 | 1.03 | 0.939 | 1.17 | 0.821 | –
11 | NCI-H1944 | – | – | – | – | – | 0.504 | 0.595 | 0.571 | 0.555 | – | – | – | – | 1.07 | 1.24 | 1.23 | 1.01 | 0.442
12 | COR-L 105 | 0.903 | 0.859 | 0.684 | 0.765 | 0.977 | – | – | – | – | 0.819 | 0.787 | 1.01 | 0.999 | 0.706 | 1.05 | 0.791 | 0.703 | –
13 | NCI-H2228 | 0.954 | 1.07 | 0.866 | 0.926 | 0.834 | – | – | – | – | 0.933 | 1.1 | 0.755 | 0.893 | 0.434 | 0.41 | 0.385 | 0.234 | –
14 | NCI-H520 | – | 0.612 | 0.73 | 0.744 | 0.737 | – | – | – | – | 0.623 | 0.83 | 0.874 | 0.439 | 0.682 | 0.843 | 0.841 | 0.581 | –
15 | SW 900 | – | – | – | – | – | 0.566 | – | 0.635 | 0.605 | – | – | – | – | – | – | – | – | 0.462
16 | NCI-H1563 | 0.788 | 0.873 | 0.947 | 0.913 | 0.985 | – | – | – | – | 0.773 | 0.847 | 0.836 | 0.571 | 0.843 | 0.792 | 0.921 | 0.843 | –
17 | A549 | – | – | – | – | – | – | – | – | – | – | – | – | – | 0.625 | 0.743 | 0.682 | 0.702 | –
18 | NCI-H2342 | – | – | – | – | – | 0.484 | 0.562 | 0.521 | 0.474 | – | – | – | – | – | – | – | – | 0.455
19 | NCI-H358 | – | – | – | – | – | 0.571 | 0.693 | 0.633 | 0.558 | – | – | – | – | 0.536 | 0.512 | 0.517 | 0.502 | 0.484
20 | NCI-H522 | – | – | – | – | – | 0.667 | 1.09 | 1.03 | 0.857 | – | – | – | – | – | – | – | – | 0.679
21 | NCI-H1793 | – | – | – | – | – | 0.674 | 0.481 | 0.593 | 0.44 | – | – | – | – | – | – | – | – | –
22 | IA-LM | 0.889 | 1.05 | 0.77 | 0.797 | 0.597 | – | – | – | – | 0.695 | 0.623 | 0.785 | 0.79 | 0.6 | 0.737 | 0.887 | 0.7 | –
23 | SK-MES-1 | – | – | – | – | – | – | – | – | – | – | – | – | – | 0.978 | 1 | 1.04 | 0.92 | –
24 | EBC-1 | 0.524 | 0.602 | 0.712 | 0.519 | 0.65 | – | – | – | – | 0.543 | 0.585 | 0.65 | 0.534 | 0.179 | 0.214 | 0.208 | 0.192 | –
